The values that follow are results of earlier work, collected in patent publication US4826982A, “Quinolonecarboxylic acid derivatives” (Kyorin Pharmaceutical Co., Ltd., priority 1985, dated 1989).

One data set relates to gram-negative bacteria. The following applies: background art; CI-934 compared with Norfloxacin and Ciprofloxacin; cited from earlier work.
The subject of a further data set is gram-positive bacteria. The following applies: background art; cited from earlier work.

On to `CCNCC1CCN(c2c(F)cc3c(=O)c(C(=O)O)cn(CC)c3c2F)C1` (stereo not shown) [CI-934, 1-ethyl-7-[3-[(ethylamino)methyl]-1-pyrrolidinyl]-6,8-difluoro-1,4-dihydro-4-oxo-3-quinolinecarboxylic acid], for which the “activity against gram-negative bacteria” value with gram-negative bacteria was “weaker activity against gram-negative bacteria than such known compounds as Norfloxacin and Ciprofloxacin”. The “activity against gram-positive bacteria” value in the data set on gram-positive bacteria was “relatively strong activity against gram-positive bacteria”.

`CCn1cc(C(=O)O)c(=O)c2cc(F)c(N3CCNCC3)cc21` [Norfloxacin]: the “activity against gram-negative bacteria” value in the data set with gram-negative bacteria is reported as “effective”. The “activity against gram-positive bacteria” value with gram-positive bacteria is “effective”.
